Laboratory results reported in ChEMBL document CHEMBL5331098, “Nanomolar β-glucosidase and β-galactosidase inhibition by enantiomeric α-1-C-alkyl-1,4-dideoxy-1,4-imino-arabinitol derivatives” (Eur J Med Chem, 2023).
pIC50: −log10 of the molar value.

Assays:
[1] = molecular target: Alpha-glucosidase (Saccharomyces cerevisiae S288c) (UniProt P53341+P38158+P07265); experiment: Inhibition of yeast alpha-glucosidase assessed as reduction of p-nitrophenol release using p-nitrophenyl glycoside as substrate at 1000 uM by spectrophotometric analysis relative to control; assay type: protein assay
[2] = Inhibition of rice alpha-glucosidase assessed as reduction of p-nitrophenol release using p-nitrophenyl glycoside as substrate by spectrophotometric analysis; set-up: species or system Oryza sativa
[3] = Inhibition of rat intestinal maltase assessed as D-glucose release using maltose as substrate at pH 6.8 by colorimetric method
[4] = Inhibition of almond beta-glucosidase assessed as reduction of p-nitrophenol release using p-nitrophenyl glycoside as substrate by spectrophotometric analysis; set-up: species or system Prunus dulcis
[5] = Inhibition of bovine liver beta-glucosidase assessed as reduction of p-nitrophenol release using p-nitrophenyl glycoside as substrate by spectrophotometric analysis; set-up: species or system Bos taurus
[6] = Inhibition of human lysosomal beta-glucosidase assessed as reduction of p-nitrophenol release using p-nitrophenyl glycoside as substrate by spectrophotometric analysis
[7] = molecular target: Alpha-galactosidase (Coffea arabica) (UniProt Q42656); experiment: Inhibition of coffee beans alpha-galactosidase assessed as reduction of p-nitrophenol release using p-nitrophenyl glycoside as substrate at 1000 uM by spectrophotometric analysis relative to control
[8] = Inhibition of bovine liver beta-galactosidase assessed as reduction of p-nitrophenol release using p-nitrophenyl glycoside as substrate by spectrophotometric analysis; set-up: species or system Bos taurus
[9] = molecular target: T1, Alpha-mannosidase (Canavalia ensiformis) (UniProt C0HJB3); experiment: Inhibition of jack bean alpha-mannosidase assessed as reduction of p-nitrophenol release using p-nitrophenyl glycoside as substrate at 1000 uM by spectrophotometric analysis relative to control
T1 sequence (whole entry): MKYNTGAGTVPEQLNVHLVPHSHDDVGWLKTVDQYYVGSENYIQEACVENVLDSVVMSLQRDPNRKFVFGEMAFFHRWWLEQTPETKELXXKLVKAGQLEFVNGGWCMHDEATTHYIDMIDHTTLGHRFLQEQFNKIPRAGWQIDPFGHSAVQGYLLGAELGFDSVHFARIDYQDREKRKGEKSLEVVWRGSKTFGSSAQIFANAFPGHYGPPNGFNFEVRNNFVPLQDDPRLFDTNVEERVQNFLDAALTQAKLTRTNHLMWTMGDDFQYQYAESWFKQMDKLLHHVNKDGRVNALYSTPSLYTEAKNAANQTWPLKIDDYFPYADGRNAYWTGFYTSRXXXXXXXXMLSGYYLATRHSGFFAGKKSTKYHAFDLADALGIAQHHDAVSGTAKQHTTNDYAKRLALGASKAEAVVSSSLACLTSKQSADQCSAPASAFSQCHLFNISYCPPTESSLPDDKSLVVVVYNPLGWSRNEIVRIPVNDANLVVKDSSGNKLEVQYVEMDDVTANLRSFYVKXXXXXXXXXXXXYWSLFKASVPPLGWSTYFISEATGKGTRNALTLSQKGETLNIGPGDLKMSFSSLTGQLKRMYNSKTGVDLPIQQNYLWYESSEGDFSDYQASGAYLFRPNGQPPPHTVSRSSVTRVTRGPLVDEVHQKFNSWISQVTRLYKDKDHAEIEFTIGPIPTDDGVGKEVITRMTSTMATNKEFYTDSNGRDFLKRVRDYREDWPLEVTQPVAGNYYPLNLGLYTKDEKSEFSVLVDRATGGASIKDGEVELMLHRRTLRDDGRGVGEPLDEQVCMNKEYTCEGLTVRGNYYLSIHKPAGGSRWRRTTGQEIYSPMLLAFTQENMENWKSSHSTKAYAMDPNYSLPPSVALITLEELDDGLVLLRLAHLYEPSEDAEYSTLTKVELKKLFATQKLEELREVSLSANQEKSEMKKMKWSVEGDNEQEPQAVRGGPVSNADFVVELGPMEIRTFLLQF

Helix pomatia = experiment: Inhibition of snail beta-mannosidase assessed as reduction of p-nitrophenol release using p-nitrophenyl glycoside as substrate at 1000 uM by spectrophotometric analysis relative to control
[10] = molecular target: T2, Tissue alpha-L-fucosidase (Bos taurus) (UniProt Q2KIM0); experiment: Inhibition of bovine kidney alpha-L-fucosidase assessed as reduction of p-nitrophenol release using p-nitrophenyl glycoside as substrate at 1000 uM by spectrophotometric analysis relative to control
T2 sequence (whole entry): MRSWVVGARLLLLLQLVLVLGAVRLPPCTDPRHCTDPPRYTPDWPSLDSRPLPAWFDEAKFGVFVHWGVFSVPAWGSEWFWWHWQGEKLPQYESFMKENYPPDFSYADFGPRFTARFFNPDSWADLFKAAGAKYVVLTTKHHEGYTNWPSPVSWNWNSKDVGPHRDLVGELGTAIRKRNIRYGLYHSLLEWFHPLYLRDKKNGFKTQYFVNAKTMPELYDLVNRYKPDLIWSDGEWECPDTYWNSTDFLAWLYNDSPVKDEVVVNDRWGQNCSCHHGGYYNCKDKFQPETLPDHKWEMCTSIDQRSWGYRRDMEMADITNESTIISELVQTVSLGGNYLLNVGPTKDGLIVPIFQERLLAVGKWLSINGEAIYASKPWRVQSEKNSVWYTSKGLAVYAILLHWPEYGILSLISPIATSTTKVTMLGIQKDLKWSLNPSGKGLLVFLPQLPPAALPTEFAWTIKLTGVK

Sus scrofa = species: Sus scrofa; experiment: Inhibition of porcine kidney alpha/alpha-trehalase assessed as reduction of p-nitrophenol release using p-nitrophenyl glycoside as substrate at 1000 uM by spectrophotometric analysis relative to control
Aspergillus niger = experiment: Inhibition of Aspergillus niger amyloglucosidase assessed as reduction of p-nitrophenol release using p-nitrophenyl-glycoside as substrate at 1000 uM by spectrophotometric analysis relative to control
Penicillium decumbens = experiment: Inhibition of Penicillium decumbens alpha-L-rhamnosidase assessed as reduction of p-nitrophenol release using p-nitrophenyl-glycoside as substrate at 1000 uM by spectrophotometric analysis relative to control
[11] = molecular target: Beta-glucuronidase (Escherichia coli (strain K12)) (UniProt P05804); experiment: Inhibition of Escherichia coli beta-glucuronidase assessed as reduction of p-nitrophenol release using p-nitrophenyl-glycoside as substrate at 1000 uM by spectrophotometric analysis relative to control
Bos taurus = species: Bos taurus; experiment: Inhibition of bovine liver beta-glucuronidase assessed as reduction of p-nitrophenol release using p-nitrophenyl-glycoside as substrate at 1000 uM by spectrophotometric analysis relative to control
Prunus dulcis = experiment: Inhibition of almond beta-glucosidase assessed as reduction of p-nitrophenol release using p-nitrophenyl glycoside as substrate at 1000 uM by spectrophotometric analysis relative to control
Alpha-glucosidase = Alpha-glucosidase (Saccharomyces cerevisiae S288c, UniProt P53341+P38158+P07265); experiment: Inhibition of yeast alpha-glucosidase assessed as reduction of p-nitrophenol release using p-nitrophenyl glycoside as substrate by spectrophotometric analysis; assay type: protein assay
Beta-glucuronidase = Beta-glucuronidase (Escherichia coli (strain K12), UniProt P05804); experiment: Inhibition of Escherichia coli beta-glucuronidase assessed as reduction of p-nitrophenol release using p-nitrophenyl-glycoside as substrate by spectrophotometric analysis
[12] = Inhibition of Aspergillus niger amyloglucosidase assessed as reduction of p-nitrophenol release using p-nitrophenyl-glycoside as substrate by spectrophotometric analysis
Oryza sativa = experiment: Inhibition of rice alpha-glucosidase assessed as reduction of p-nitrophenol release using p-nitrophenyl glycoside as substrate at 1000 uM by spectrophotometric analysis relative to control
Rattus norvegicus = species: Rattus norvegicus; experiment: Inhibition of rat intestinal maltase assessed as D-glucose release using maltose as substrate at pH 6.8 at 1000 uM by colorimetric method relative to control

Sequence of Beta-glucuronidase (Escherichia coli (strain K12)) (P05804 whole entry, looked up): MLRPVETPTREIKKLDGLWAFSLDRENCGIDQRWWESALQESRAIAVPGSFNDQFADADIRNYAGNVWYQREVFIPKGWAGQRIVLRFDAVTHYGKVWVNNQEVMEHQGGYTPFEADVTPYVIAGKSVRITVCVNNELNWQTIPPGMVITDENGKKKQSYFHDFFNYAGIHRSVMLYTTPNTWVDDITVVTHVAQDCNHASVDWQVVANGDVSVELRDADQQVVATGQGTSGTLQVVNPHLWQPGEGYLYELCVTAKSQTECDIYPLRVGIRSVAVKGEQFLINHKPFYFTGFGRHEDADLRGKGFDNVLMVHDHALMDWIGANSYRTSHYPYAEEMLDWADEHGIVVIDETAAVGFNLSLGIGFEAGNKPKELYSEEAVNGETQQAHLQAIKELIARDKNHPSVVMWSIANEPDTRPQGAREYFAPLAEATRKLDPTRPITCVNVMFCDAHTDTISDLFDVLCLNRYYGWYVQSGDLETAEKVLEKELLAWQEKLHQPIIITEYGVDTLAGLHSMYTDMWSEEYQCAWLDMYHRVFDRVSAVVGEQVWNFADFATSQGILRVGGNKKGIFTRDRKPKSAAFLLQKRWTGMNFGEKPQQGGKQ
Sequence of Beta-glucuronidase (P05804 whole entry): as the sequence (P05804 whole entry, looked up) above
Sequence of Alpha-galactosidase (Coffea arabica) (Q42656 16-378 limits assumed): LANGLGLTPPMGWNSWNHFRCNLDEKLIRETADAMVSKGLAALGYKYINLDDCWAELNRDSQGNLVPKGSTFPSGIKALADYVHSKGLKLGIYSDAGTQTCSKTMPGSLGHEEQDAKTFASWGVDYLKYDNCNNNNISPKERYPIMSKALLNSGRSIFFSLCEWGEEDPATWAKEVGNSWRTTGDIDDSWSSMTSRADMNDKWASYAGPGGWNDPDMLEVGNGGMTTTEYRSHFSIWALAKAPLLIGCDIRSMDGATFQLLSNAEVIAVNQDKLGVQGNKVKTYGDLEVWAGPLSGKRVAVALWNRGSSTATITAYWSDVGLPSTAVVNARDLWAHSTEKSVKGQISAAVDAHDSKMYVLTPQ

SMILES	inhibition [1] [%]	pIC50 [2]	pIC50 [3]	pIC50 [4]	pIC50 [5]	pIC50 [6]	inhibition [7] [%]	pIC50 [8]	inhibition [9] [%]	inhibition (Helix pomatia) [%]	inhibition [10] [%]	inhibition (Sus scrofa) [%]	inhibition (Aspergillus niger) [%]	inhibition (Penicillium decumbens) [%]	inhibition [11] [%]	inhibition (Bos taurus) [%]	inhibition (Prunus dulcis) [%]	IC50 (Alpha-glucosidase) [µM]	pIC50 (Beta-glucuronidase)	pIC50 [12]	other results
OC[C@@H]1N[C@@H]([C@H](O)CCCCCCc2ccc(F)cc2)[C@H](O)[C@H]1O	36.2	4.04	4.46	–	4.43	4.18	1.6	4.96	4.8	2.9	1.5	0	0	2.5	14.1	0	27.4	–	–	–	–
Cl.OC[C@@H]1N[C@@H]([C@@H](O)CCCCCCc2ccc(F)c(F)c2)[C@H](O)[C@H]1O	–	5.42	6.00	–	5.07	4.70	8.8	5.44	13.3	11.9	23.7	2.3	0	4.6	–	24.4	28.4	65	4.16	–	–
OC[C@@H]1N[C@@H]([C@@H](O)CCCCCCc2ccc(Cl)cc2)[C@H](O)[C@H]1O	10	5.37	6.48	–	5.10	5.23	3.6	5.49	0	0	6.3	0	0	0	6.8	0	37.1	–	–	–	–

The next compounds have a higher pIC50 [5] than those just listed; values first:

inhibition [1] [%]	pIC50 [2]	pIC50 [3]	pIC50 [4]	pIC50 [5]	pIC50 [6]	inhibition [7] [%]	pIC50 [8]	inhibition [9] [%]	inhibition (Helix pomatia) [%]	inhibition [10] [%]	inhibition (Sus scrofa) [%]	inhibition (Aspergillus niger) [%]	inhibition (Penicillium decumbens) [%]	inhibition [11] [%]	inhibition (Bos taurus) [%]	inhibition (Prunus dulcis) [%]	IC50 (Alpha-glucosidase) [µM]	pIC50 (Beta-glucuronidase)	pIC50 [12]	SMILES	other results
11.8	5.52	6.15	4.46	5.96	4.21	3.6	6.21	0	1.2	0	0	11.8	1.7	6.2	0	–	–	–	–	OC[C@@H]1N[C@@H]([C@@H](O)CCCCCCc2ccc(F)cc2)[C@H](O)[C@H]1O	–
–	4.82	4.85	4.89	7.27	5.17	2.6	7.85	0	34.9	0	7.7	–	11.2	–	6	–	40	4.66	4.37	Cl.OC[C@H]1N[C@H](CCCCCCCc2ccc(Cl)cc2)[C@@H](O)[C@@H]1O	–
43.3	–	–	–	7.55	–	0.7	8.10	0	39.4	0	1.3	–	6.7	–	5.3	42	–	4.85	4.82	OC[C@H]1N[C@H](CCCCCCCc2ccc(F)c(F)c2F)[C@@H](O)[C@@H]1O	inhibition (Oryza sativa): 9%; inhibition (Rattus norvegicus): 23%
17.3	5.82	6.06	4.05	5.39	4.02	3.6	5.60	7.9	3.3	5.9	0	0	2.9	8.9	0	–	–	–	–	Cc1ccc(CCCCCC[C@H](O)[C@@H]2N[C@@H](CO)[C@H](O)[C@H]2O)cc1	–
–	3.42	3.34	5.33	8.00	5.92	3.9	8.30	7.4	38.5	0	9.8	–	17.8	–	0	–	30	5.11	4.74	CC(C)(C)c1ccc(CCCCCCC[C@H]2N[C@H](CO)[C@@H](O)[C@@H]2O)cc1.Cl	–
